Data on eleven compounds can be found in ChEMBL document CHEMBL1201862, “PubChem BioAssay data set” (2004).

Common to all, as to assay: DTP human tumour cell line panel, 48 h
In assay [1] the test system is SNB-19.
Assay [2] concerns MCF7.
Assay [3] deals with NCI-H522.
Assay [4] relates to Hs-578T.
Assay [5] relates to TK-10.
Assay [6] has as its system RPMI-8226.
Assay [7] deals with HCT-15.
In assay [8] the test system is MOLT-4.
For assay [9], the system named is SK-MEL-28.
Assay [10] has as its system SW-620.
Assay [11] deals with SF-295.
Assay [12] deals with DU-145.
Assay [13] concerns BT-549.
Assay [14] deals with U-251.
For assay [15], the system named is COLO 205.
For assay [16], the system named is SF-268.
The test system of assay [17] is NCI-H23.
For assay [18], the system named is HOP-92.
The test system of assay [19] is EKVX.
In assay [20] the test system is HCC 2998.

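Where inhibition never reached the appropriate level, the endpoint shown equals the highest concentration tested. Otherwise, values were interpolated linearly from a five-concentration, 48-hour dose response in 96-well plates. Abbreviation: GI50, concentration required for 50% inhibition of growth.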 The source made the active and inactive calls. Rule as the data show it: active = GI50 up to about 1.1 µM and inactive = higher.

As to `Cc1ccc(S(=O)(=O)NC(=O)NC(CC(N)=O)C(=O)O)cc1` (configuration not stated), the GI50 in assay [1], in assay [2], in [3], in assay [4], in [5] and in assay [6] was > 100 µM (inactive) throughout. Further, the GI50 in assay [7] was more than 100 µM; in assay [8] it was > 100 µM (inactive); in [9], > 100 µM (inactive); in [10] it was > 100 µM (inactive); in assay [11], > 100 µM (inactive); in assay [12], > 100 µM (inactive). Besides, the GI50 in assay [13], in [14], in assay [15], in [16], in assay [17] and in [18] was > 100 µM (inactive) in each case.

Take `Cc1cc(C(=O)CBr)c(CN2C(=O)c3ccccc3C2=O)c(=O)n1C`: the GI50 in assay [1] is 33.3 µM (inactive); in [2], 17.9 µM (inactive); in assay [3], 16.1 µM (inactive); in assay [4], 15.2 µM (inactive); in assay [5] it was 7.43 µM (inactive); in assay [7], 12.6 µM. The GI50 in assay [8] is 1.93 µM (inactive); in assay [9], 20.4 µM (inactive); in [19] it was 2.21 µM (inactive); in assay [20], 38.1 µM (inactive); in assay [10] it was 3.78 µM (inactive); in assay [11], 38.5 µM (inactive). Also, the GI50 in [12] was 13.7 µM (inactive); in assay [13] it was 18.1 µM (inactive); in assay [14], 12.7 µM (inactive); in [15] it was 8.43 µM (inactive); in assay [16], 24.4 µM (inactive); in [17] it was 80.4 µM (inactive).

In the case of `CCc1nnc(S)n1/N=C\c1ccc(-c2ccccc2[N+](=O)[O-])o1`, the GI50 was > 100 µM (inactive) in [1]; 19.9 µM (inactive) in assay [2]; 31.6 µM (inactive) in assay [3]; 37.4 µM (inactive) in assay [4]; > 100 µM (inactive) in [5]; 13.2 µM (inactive) in assay [6]. Besides, the GI50 is 30.3 µM in assay [7]; 19.4 µM (inactive) in assay [8]; 21.1 µM (inactive) in [19]; 41.7 µM (inactive) in assay [10]; 28.7 µM (inactive) in assay [11]; 53.5 µM (inactive) in assay [12]. In addition, the GI50 in assay [13] was 28.8 µM (inactive); in [14], 38.5 µM (inactive); in assay [15], 29.9 µM (inactive); in [16], 36.7 µM (inactive); in assay [17], 33.3 µM (inactive); in assay [18], 49.3 µM (inactive).

Turning to `CC(=O)Oc1ccc2c3c1O[C@H]1[C@H](O)CC[C@@]4(O)[C@@H](C2)N(C)CC[C@]314`, the GI50 in [1], in assay [2], in assay [3], in assay [4], in assay [5] and in [6] was > 100 µM (inactive) throughout. Besides, the GI50 in assay [7] was more than 100 µM; in [8], > 100 µM (inactive); in assay [9] it was > 100 µM (inactive); in assay [19] it was > 100 µM (inactive); in [10], > 100 µM (inactive); in [11], > 100 µM (inactive). Further, the GI50 in assay [12], in assay [13], in assay [14], in assay [15], in [16] and in assay [17] was > 100 µM (inactive) in each case. For the same compound, in assay [18], the GI50 is > 100 µM (inactive).

As to `O=S1(=O)c2ccccc2NC(=S)CC1c1ccccc1` (configuration not stated), the GI50 in assay [1], in assay [2], in [3], in assay [4], in assay [5] and in assay [6] was > 100 µM (inactive) each time. The GI50 in assay [7] is more than 100 µM; in assay [8], > 100 µM (inactive); in assay [9] it was > 100 µM (inactive); in assay [19] it was > 100 µM (inactive); in [11], 26.3 µM (inactive); in assay [12] it was > 100 µM (inactive). The GI50 is > 100 µM (inactive) in assay [13]; > 100 µM (inactive) in assay [14]; 36.6 µM (inactive) in assay [15]; > 100 µM (inactive) in assay [16]; > 100 µM (inactive) in assay [17].

For `OCC1OC(n2cnc3c(/C=C(/O)c4ccccc4)ncnc32)C(O)C1O` (configuration not stated), the GI50 in assay [1] was 12.4 µM (inactive); in assay [2] it was 3.8 µM (inactive); in [3], 2.16 µM (inactive); in assay [4], 14.4 µM (inactive); in [5] it was 0.516 µM (active); in assay [6], 1.38 µM (inactive). Moreover, the GI50 was 1.05 µM in [7]; 1.71 µM (inactive) in [8]; 41.8 µM (inactive) in [9]; 19.1 µM (inactive) in assay [19]; 0.875 µM (active) in assay [10]; 5.13 µM (inactive) in [11]. The GI50 was 1.61 µM (inactive) in [12]; 6.08 µM (inactive) in assay [13]; 10.9 µM (inactive) in assay [14]; 0.944 µM (active) in assay [15]; 5.78 µM (inactive) in assay [16]; 2.82 µM (inactive) in [17]. For the same compound, in [18], the GI50 is > 25.1 µM (inactive).

On to `Cc1c(C)c(S(=O)(=O)N(CCCCCON)OCCCN)c(C)c2c1OC(C)(C)CC2`, for which the GI50 in assay [1] is 15.5 µM (inactive); in [2], 8.18 µM (inactive); in assay [3], 17.7 µM (inactive); in assay [4], 19.3 µM (inactive); in assay [5], 14.3 µM (inactive); in assay [6] it was 9.29 µM (inactive). Besides, the GI50 was 15.2 µM in assay [7]; 4.94 µM (inactive) in assay [8]; 16.5 µM (inactive) in assay [9]; 12.3 µM (inactive) in assay [19]; 15 µM (inactive) in assay [10]; 15.2 µM (inactive) in assay [11]. For the same compound, the GI50 in assay [12] is 0.883 µM (active); in assay [13], 15.5 µM (inactive); in [14], 12.8 µM (inactive); in assay [15], 3.48 µM (inactive); in assay [16], 16.8 µM (inactive); in assay [17], 15.6 µM (inactive). In addition, the GI50 in [18] is 10.3 µM (inactive).

On to `CN(C(=O)[C@H](NC(=O)OCc1ccccc1)c1ccccc1)C1CCCCC1N1CCCC1` (some centres not stated), for which the GI50 was > 100 µM (inactive) in assay [1]; 98.2 µM (inactive) in assay [2]; 43.9 µM (inactive) in assay [3]; 19.6 µM (inactive) in [4]; 74.6 µM (inactive) in [5]; 36.3 µM (inactive) in assay [6]. The GI50 was more than 100 µM in [7]; 23.7 µM (inactive) in [8]; > 100 µM (inactive) in [9]; > 100 µM (inactive) in assay [19]; > 100 µM (inactive) in assay [10]; > 100 µM (inactive) in [11]. The GI50 in assay [12] is > 100 µM (inactive); in [13] it was > 100 µM (inactive); in assay [14], > 100 µM (inactive); in [15], 87.9 µM (inactive); in assay [16], 62.4 µM (inactive); in assay [17], > 100 µM (inactive). Besides, the GI50 in assay [18] was 31.5 µM (inactive).

Turning to `O=C(O)C1C2CC3C(OC(=O)C31)C2Br` (configuration not stated), the GI50 in assay [1], in [2], in assay [3], in [4], in assay [5] and in assay [6] was > 100 µM (inactive) in each case. In addition, the GI50 in assay [7] is more than 100 µM; in assay [8] it was > 39.5 µM (inactive); in assay [9], > 100 µM (inactive); in assay [19], > 100 µM (inactive); in [10], > 100 µM (inactive); in [11], > 100 µM (inactive). Also, the GI50 in assay [12], in assay [13], in assay [14], in assay [15], in assay [16] and in assay [17] was > 100 µM (inactive) in each case. Also, in [18], the GI50 was > 100 µM (inactive).

Turning to `Cc1ccc(O)c(-c2cc(-c3ccccc3)nc(/N=C\c3ccccc3)n2)c1`, the GI50 was 29.8 µM (inactive) in assay [1]; 2.6 µM (inactive) in assay [2]; > 100 µM (inactive) in [3]; 25.3 µM (inactive) in assay [4]; 97.1 µM (inactive) in assay [5]; 11.6 µM in [7]. Moreover, the GI50 was 18.2 µM (inactive) in assay [8]; > 100 µM (inactive) in assay [9]; 47.8 µM (inactive) in [19]; > 100 µM (inactive) in assay [10]; 36.1 µM (inactive) in [11]; > 100 µM (inactive) in [12]. In addition, the GI50 was 0.126 µM (active) in [13]; 20.9 µM (inactive) in assay [14]; 21.9 µM (inactive) in assay [16]; 24.4 µM (inactive) in assay [17]; 43.7 µM (inactive) in assay [18].

As for `COc1cc(/C=C/c2ccc(OC)c(OC)c2)cc(OC)c1` [(E)-3,4,3',5'-TETRAMETHOXYSTILBENE], the GI50 is 84.9 µM (inactive) in [1]; 57 µM (inactive) in assay [2]; 18.8 µM (inactive) in [3]; 25.8 µM (inactive) in [4]; 56.1 µM (inactive) in [5]; 83.4 µM (inactive) in assay [6]. For the same compound, the 50% growth inhibitory concentration (GI50) in assay [7] was 7.08 µM; in [8] it was 46.6 µM (inactive); in [9] it was 36.2 µM (inactive); in assay [19], 39.9 µM (inactive); in assay [10], 28.7 µM (inactive); in assay [11], 22.2 µM (inactive). In addition, the GI50 in assay [12] is 45.2 µM (inactive); in assay [13], 23.7 µM (inactive); in assay [14] it was 24.7 µM (inactive); in assay [15] it was 19.2 µM (inactive); in [16], 39.5 µM (inactive); in [17], 22.9 µM (inactive). The GI50 in [18] is > 100 µM (inactive).
